Results from patent publication US9492436B2, “Azabenzimidazole derivatives” (Boehringer Ingelheim International GmbH, priority 2013, dated 2016).

target: T1, AMPK complex 1 (containing alpha1beta1gamma1) (Homo sapiens, UniProt Q13131+Q9Y478); assay: In vitro AMPK activation assay (ADP-Glo Kinase Assay); format: biochemical; conditions: 30 μM ATP, 1 μM peptide, 60 min, room temperature
T1 construct: GST (Glutathion S transferase) (N); made in house; host or cells: baculovirus; virus made in Sf9, expression in High Five cells
Description: Activated AMPK complex 1 (containing alpha1beta1gamma1) was obtained from baculovirus expression system. The gene encoding AMPK alpha1 was cloned into the pACG2T vector (BD Biosciences) to obtain a N-terminal Glutathion S transferase (GST)-fusion protein. The genes encoding AMPK beta 1 and gamma1 were cloned into the p2Bac dual multiple cloning site vector (Invitrogen) with beta1 under the control of the p10 promoter and gamma1 under the control of the PH promoter. The transfer vectors containing AMPK were co-transfected individually with AcPNV BacMagic-3 DNA (EMD Millipore) in Sf9 cells and the recombinant baculoviruses were harvested after 5 days, followed by 3 rounds of amplification of the virus stock in Sf9 cells. AMPK (alpha1beta1gamma1) was expressed in High Five 5 cells by co-infection of recombinant alpha1 virus and recombinant beta1/gamma1 virus for 72 h at 27° C. Cells were harvested by centrifugation and lysed by 3 freeze/thaw cycles in PBS with 10% glycerol and protease inhibitor cocktail (Roche). After centrifugation AMPK a1b1g1 in the supernatant was captured by immobilized glutathione (GE Healthcare), impurities were washed away with PBS and AMPK alpha1beta1gamma1 was eluted with PBS containing 20 mM reduced gluthathione. The protein buffer was then exchanged to PBS with 10% glycerol and protein concentration was determined by UV absorbance.
The white 384-well Optiplates (cat.no. 6007299) were purchased from PerkinElmer. The V9101 ADP-Glo Kinase Assay and ultra pure ATP (V915A) was purchased from Promega. The substrate for AMPK (NH2-HMRSAMSGLHLVKRR_CONH2) was purchased from Upstate (12-355).
Compounds were tested in either serial dilutions or single dose concentrations. The serial compound dilutions were prepared in 100% DMSO automatically. The final DMSO concentration in the assay was 0.1%.
The Compound Stock Solutions were 10 mM in 100% DMSO. The compounds were solubilised at room temperature.
In the 384-well plates 1.25 ul of test compound in assay buffer was mixed with 1.25 ul of AMPK and 1.25 μl of the peptide (final concentration of 1 μM) and 1.25 μl of ATP (final concentration of 30 μM), both dissolved in assay buffer. This step was followed by an incubation time of 60 min. Then 5 μl of ADP Glo Reagent was added. This was followed by 40 min of incubation. Then 10 μl of Kinase Detection Reagent was admixed. The plates were sealed and after an incubation period of 30 min, the luminescence signal was measured in an Envision reader. All incubation steps were accomplished at room temperature.
Each assay microtiter plate contained wells with vehicle controls instead of compound (0.1% DMSO in water) as reference for the low signal (100% CTL, low signal), and wells with serial dilutions of AMP (final 30 μM) as reference for high signals.
The luminescence signal generated was proportional to the ADP concentration produced and was correlated with AMPK activity. The analysis of the data was performed by the calculation of the percentage of ATP consumption of AMPK in the presence of the test compound compared to the consumption of ATP in the presence of AMPK without compound. (RLU(sample)/RLU(low control))*100[RLU=relative luminescence units]
An activator of the AMPK enzyme gave values above 100% CTL.
EC50 values based on dose response curves are calculated with the XIFIT software using the 4 Parameter Logistic Model or Sigmoidal Dose-Response Model.

T1 sequence (Q13131 whole entry): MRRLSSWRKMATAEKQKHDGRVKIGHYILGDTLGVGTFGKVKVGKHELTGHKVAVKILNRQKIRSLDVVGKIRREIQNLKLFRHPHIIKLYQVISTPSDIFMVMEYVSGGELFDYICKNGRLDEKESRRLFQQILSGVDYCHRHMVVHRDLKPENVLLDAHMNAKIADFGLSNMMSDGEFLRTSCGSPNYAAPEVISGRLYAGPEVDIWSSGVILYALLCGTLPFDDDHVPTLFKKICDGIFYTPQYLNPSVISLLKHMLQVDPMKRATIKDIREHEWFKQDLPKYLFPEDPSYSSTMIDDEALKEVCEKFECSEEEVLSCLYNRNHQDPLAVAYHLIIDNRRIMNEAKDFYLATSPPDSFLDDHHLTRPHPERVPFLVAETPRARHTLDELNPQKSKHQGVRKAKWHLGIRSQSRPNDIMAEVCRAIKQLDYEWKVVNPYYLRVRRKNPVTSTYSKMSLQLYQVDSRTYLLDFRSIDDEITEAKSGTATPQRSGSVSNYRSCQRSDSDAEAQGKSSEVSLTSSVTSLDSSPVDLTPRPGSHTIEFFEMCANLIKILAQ
T1 sequence (Q9Y478 whole entry): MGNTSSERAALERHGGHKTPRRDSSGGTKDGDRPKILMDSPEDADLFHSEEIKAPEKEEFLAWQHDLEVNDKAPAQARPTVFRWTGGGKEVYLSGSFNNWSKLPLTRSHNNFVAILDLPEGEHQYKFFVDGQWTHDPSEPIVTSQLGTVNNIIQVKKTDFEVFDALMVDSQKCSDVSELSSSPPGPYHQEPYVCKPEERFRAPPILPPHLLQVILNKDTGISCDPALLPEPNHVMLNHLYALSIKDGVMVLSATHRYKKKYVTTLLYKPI
T1 sequence (P54619 whole entry partner): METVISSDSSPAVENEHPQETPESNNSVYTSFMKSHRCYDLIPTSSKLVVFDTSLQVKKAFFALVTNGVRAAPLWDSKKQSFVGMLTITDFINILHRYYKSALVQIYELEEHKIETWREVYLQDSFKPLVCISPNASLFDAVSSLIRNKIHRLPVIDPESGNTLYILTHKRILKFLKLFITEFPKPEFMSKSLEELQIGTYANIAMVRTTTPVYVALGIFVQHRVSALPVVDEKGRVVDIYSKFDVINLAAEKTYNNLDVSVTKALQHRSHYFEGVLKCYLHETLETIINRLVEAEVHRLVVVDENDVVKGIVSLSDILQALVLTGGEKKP

Row | Compound | EC50 [nM]
1 | C[S@](=O)(=NC(=O)c1ccc(-c2nc3[nH]c(O[C@@H]4CO[C@H]5[C@@H]4OC[C@H]5O)nc3cc2Cl)cc1)c1ccccc1 [Example 25, (R)-N-4-(6-Chloro-2-((3R,3aR,6R,6aR)-6-hydroxyhexahydrofuro[3,2-b]furan-3-yloxy)-3H-imidazo[4,5-b]pyridin-5-yl)-benzoyl-S-methyl-5-phenylsulfoximine] | 1200
2 | CS(=O)(=Nc1ccc(-c2nc3[nH]c(O[C@@H]4CO[C@H]5[C@@H]4OC[C@H]5O)nc3cc2Cl)cc1)c1ccncc1 (stereo partly drawn) [Example 26, N-(4-(6-Chloro-2-((3R,3aR,6R,6aR)-6-hydroxyhexahydrofuro[3,2-b]furan-3-yloxy)-3H-imidazo[4,5-b]pyridin-5-yl)phenyl)-S-methyl-S-(pyridin-4-yl)-sulfoximide] | 145
3 | CN=S(C)(=O)c1ccc(N2CCN(c3nc4[nH]c(O[C@@H]5CO[C@H]6[C@@H]5OC[C@H]6O)nc4cc3Cl)CC2)cc1 (stereo partly drawn) [Example 29, (3R,3aR,6R,6aR)-6-(6-Chloro-5-(4-(4-(N,S-dimethylsulfonimidoyl)phenyl)piperazin-1-yl)-3H-imidazo[4,5-b]pyridin-2-yloxy)hexahydrofuro[3,2-b]furan-3-ol] | 725
4 | CS(C)(=O)=Nc1ccc(-c2ccc(-c3nc4[nH]c(O[C@@H]5CO[C@H]6[C@@H]5OC[C@H]6O)nc4cc3Cl)cc2)nc1 [Example 30, N-(2-(4-(6-Chloro-2-((3R,3aR,6R,6aR)-6-hydroxyhexahydrofuro[3,2-b]furan-3-yloxy)-3H-imidazo[4,5-b]pyridin-5-yl)phenyl)pyridin-5-yl)-S,S-dimethylsulfoximide] | 2
5 | CS(C)(=O)=Nc1ccc(-c2ccc(-c3nc4[nH]c(O[C@@H]5CO[C@H]6[C@@H]5OC[C@H]6O)nc4cc3Cl)cn2)cc1 [Example 32, N-(4-{5-[6-Chloro-2-((3R,3aR,6R,6aR)-6-hydroxyhexahydrofuro[3,2-b]furan-3-yloxy)-3H-imidazo[4,5-b]pyridin-5-yl]-pyridin-2-yl}-phenyl)-S,S-dimethylsulfoximide] | 13
6 | CS(=N)(=O)[C@H]1CC[C@@H](c2ccc(-c3nc4[nH]c(O[C@@H]5CO[C@H]6[C@@H]5OC[C@H]6O)nc4cc3Cl)cc2)CC1 (stereo partly drawn) [Example 33, cis-(3R,3aR,6R,6aR)-6-(6-Chloro-5-[4-{4-(S-methylsulfonimidoyl)-cyclohexyl}-phenyl]-3H-imidazo[4,5-b]pyridin-2-yloxy)-hexahydro-furo[3,2-b]furan-3-ol] | 265
7 | CS(C)(=O)=NCc1cccc(-c2ccc(-c3nc4[nH]c(O[C@@H]5CO[C@H]6[C@@H]5OC[C@H]6O)nc4cc3Cl)cc2)n1 [Example 35, N-(2-(4-(6-Chloro-2-((3R,3aR,6R,6aR)-6-hydroxyhexahydrofuro[3,2-b]furan-3-yloxy)-3H-imidazo[4,5-b]pyridin-5-yl)phenyl)pyridin-6-ylmethyl)-S,S-dimethylsulfoximide] | 87
8 | CS(C)(=O)=Nc1ccnc(-c2ccc(-c3nc4[nH]c(O[C@@H]5CO[C@H]6[C@@H]5OC[C@H]6O)nc4cc3Cl)cc2)c1 [Example 37, N-(2-{4-[6-Chloro-2-((3R,3aR,6R,6aR)-6-hydroxyhexahydrofuro[3,2-b]furan-3-yloxy)-3H-imidazo[4,5-b]pyridin-5-yl]-phenyl}-pyridin-4-yl)-S,S-dimethylsulfoximide] | 47
9 | CS(C)(=O)=NCc1cccc(-c2ccc(-c3nc4[nH]c(O[C@@H]5CO[C@H]6[C@@H]5OC[C@H]6O)nc4cc3Cl)cc2)c1 [Example 38, N-(4′-(6-Chloro-2-((3R,3aR,6R,6aR)-6-hydroxyhexahydrofuro[3,2-b]furan-3-yloxy)-3H-imidazo[4,5-b]pyridin-5-yl)biphenyl-3-ylmethyl)-S,S-dimethylsulfoximide] | 704
10 | CS(C)(=O)=Nc1cnc(-c2ccc(-c3nc4[nH]c(O[C@@H]5CO[C@H]6[C@@H]5OC[C@H]6O)nc4cc3Cl)cc2)cn1 [Example 39, N-(5-{4-[6-Chloro-2-((3R,3aR,6R,6aR)-6-hydroxyhexahydrofuro[3,2-b]furan-3-yloxy)-3H-imidazo[4,5-b]pyridin-5-yl]-phenyl}-pyrazin-2-yl)-S,S-dimethylsulfoximide] | 8
11 | N=S1(=O)CC=C(c2ccc(-c3nc4[nH]c(O[C@@H]5CO[C@H]6[C@@H]5OC[C@H]6O)nc4cc3Cl)cc2)CC1 (stereo partly shown) [Example 40] | 50
12 | CS(=N)(=O)c1cccc(-c2ccc(-c3nc4[nH]c(O[C@@H]5CO[C@H]6[C@@H]5OC[C@H]6O)nc4cc3Cl)cc2)c1 (stereo partly drawn) [Example 41, (3R,3aR,6R,6aR)-6-(6-Chloro-5-(3′-(S-methylsulfonimidoyl)biphenyl-4-yl)-3H-imidazo[4,5-b]pyridin-2-yloxy)hexahydrofuro[3,2-b]furan-3-ol] | 209
13 | CS(C)(=O)=Nc1ccc(-c2ncc(-c3nc4[nH]c(O[C@@H]5CO[C@H]6[C@@H]5OC[C@H]6O)nc4cc3Cl)cn2)cc1 [Example 42, N-(4-{5-[6-Chloro-2-((3R,3aR,6R,6aR)-6-hydroxyhexahydrofuro[3,2-b]furan-3-yloxy)-3H-imidazo[4,5-b]pyridin-5-yl]-pyrimidin-2-yl}-phenyl)-S,S-dimethylsulfoximide] | 410
14 | CS(C)(=O)=Nc1ccc2c(c1)CN(c1ccc(-c3nc4[nH]c(O[C@@H]5CO[C@H]6[C@@H]5OC[C@H]6O)nc4cc3Cl)cc1)C2 [Example 43, N-(2-{4-[6-Chloro-2-((3R,3aR,6R,6aR)-6-hydroxyhexahydrofuro[3,2-b]furan-3-yloxy)-3H-imidazo[4,5-b]pyridin-5-yl]-phenyl}-2,3-dihydro-1H-isoindol-5-yl)-S,S-dimethylsulfoximide] | 293
15 | CS(C)(=O)=Nc1ccc2c(n1)CN(c1ccc(-c3nc4[nH]c(O[C@@H]5CO[C@H]6[C@@H]5OC[C@H]6O)nc4cc3Cl)cc1)C2 [Example 44, N-(6-{4-[6-Chloro-2-((3R,3aR,6R,6aR)-6-hydroxyhexahydrofuro[3,2-b]furan-3-yloxy)-3H-imidazo[4,5-b]pyridin-5-yl]-phenyl}-6,7-dihydro-5H-pyrrolo[3,4-b]pyridin-2-yl)-S,S-dimethylsulfoximide] | 66
16 | CS(C)(=O)=NCc1ccnc(-c2ccc(-c3nc4[nH]c(O[C@@H]5CO[C@H]6[C@@H]5OC[C@H]6O)nc4cc3Cl)cc2)c1 [Example 46, N-(2-(4-(6-Chloro-2-((3R,3aR,6R,6aR)-6-hydroxyhexahydrofuro[3,2-b]furan-3-yloxy)-3H-imidazo[4,5-b]pyridin-5-yl)phenyl)pyridin-4-ylmethyl)-S,S-dimethylsulfoximide] | 37
17 | CS(C)(=O)=Nc1cccc(-c2ccc(-c3nc4[nH]c(O[C@@H]5CO[C@H]6[C@@H]5OC[C@H]6O)nc4cc3Cl)cc2)n1 [Example 47, N-(6-{4-[6-Chloro-2-((3R,3aR,6R,6aR)-6-hydroxyhexahydrofuro[3,2-b]furan-3-yloxy)-3H-imidazo[4,5-b]pyridin-5-yl]-phenyl}-pyridin-2-yl)-S,S-dimethylsulfoximide] | 67
18 | CS(C)(=O)=NCc1ccc(-c2ccc(-c3nc4[nH]c(O[C@@H]5CO[C@H]6[C@@H]5OC[C@H]6O)nc4cc3Cl)cc2)nc1 [Example 48, N-(6-(4-(6-Chloro-2-((3R,3aR,6R,6aR)-6-hydroxyhexahydrofuro[3,2-b]furan-3-yloxy)-3H-imidazo[4,5-b]pyridin-5-yl)phenyl)pyridin-3-ylmethyl)-S,S-dimethylsulfoximide] | 16
19 | CS(=N)(=O)c1cnc(-c2ccc(-c3nc4[nH]c(O[C@@H]5CO[C@H]6[C@@H]5OC[C@H]6O)nc4cc3Cl)cc2)nc1 (stereo partly drawn) [Example 49, (3R,3aR,6R,6aR)-6-(6-Chloro-5-(4-(5-(S-methylsulfonimidoyl)pyrimidin-2-yl)phenyl)-3H-imidazo[4,5-b]pyridin-2-yloxy)hexahydrofuro[3,2-b]furan-3-ol] | 26
